The text below walks through data of patent US10040781B2, “Tank-binding kinase inhibitor compounds” (Gilead Sciences, Inc., priority 2014, dated 2018).

Where two headings read alike, the source gives them in different places.

In general, IC50 refers to the concentration needed to halve the response being measured.

One test addresses TBK1 (Homo sapiens (Human), UniProt Q9UHD2). Put plainly: TBK1 TR-FRET enzymatic assay.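 Further: phosphorylation of a biotinylated Ser/Thr peptide by purified full-length recombinant TBK1, read by TR-FRET after 240 min at 25 °C, IC50 is the geometric mean of at least four runs.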 For orientation: TR-FRET usually uses a lanthanide donor and a delayed reading to cut background.
The target of a further test is hJAK2 (Homo sapiens (Human), UniProt O60674). As to the kind of experiment: hJAK2 LANCE TR-FRET enzymatic assay. Type of test: biochemical. Conditions: read-out: JAK2 IC50.
Chain of hJAK2 (O60674 whole entry): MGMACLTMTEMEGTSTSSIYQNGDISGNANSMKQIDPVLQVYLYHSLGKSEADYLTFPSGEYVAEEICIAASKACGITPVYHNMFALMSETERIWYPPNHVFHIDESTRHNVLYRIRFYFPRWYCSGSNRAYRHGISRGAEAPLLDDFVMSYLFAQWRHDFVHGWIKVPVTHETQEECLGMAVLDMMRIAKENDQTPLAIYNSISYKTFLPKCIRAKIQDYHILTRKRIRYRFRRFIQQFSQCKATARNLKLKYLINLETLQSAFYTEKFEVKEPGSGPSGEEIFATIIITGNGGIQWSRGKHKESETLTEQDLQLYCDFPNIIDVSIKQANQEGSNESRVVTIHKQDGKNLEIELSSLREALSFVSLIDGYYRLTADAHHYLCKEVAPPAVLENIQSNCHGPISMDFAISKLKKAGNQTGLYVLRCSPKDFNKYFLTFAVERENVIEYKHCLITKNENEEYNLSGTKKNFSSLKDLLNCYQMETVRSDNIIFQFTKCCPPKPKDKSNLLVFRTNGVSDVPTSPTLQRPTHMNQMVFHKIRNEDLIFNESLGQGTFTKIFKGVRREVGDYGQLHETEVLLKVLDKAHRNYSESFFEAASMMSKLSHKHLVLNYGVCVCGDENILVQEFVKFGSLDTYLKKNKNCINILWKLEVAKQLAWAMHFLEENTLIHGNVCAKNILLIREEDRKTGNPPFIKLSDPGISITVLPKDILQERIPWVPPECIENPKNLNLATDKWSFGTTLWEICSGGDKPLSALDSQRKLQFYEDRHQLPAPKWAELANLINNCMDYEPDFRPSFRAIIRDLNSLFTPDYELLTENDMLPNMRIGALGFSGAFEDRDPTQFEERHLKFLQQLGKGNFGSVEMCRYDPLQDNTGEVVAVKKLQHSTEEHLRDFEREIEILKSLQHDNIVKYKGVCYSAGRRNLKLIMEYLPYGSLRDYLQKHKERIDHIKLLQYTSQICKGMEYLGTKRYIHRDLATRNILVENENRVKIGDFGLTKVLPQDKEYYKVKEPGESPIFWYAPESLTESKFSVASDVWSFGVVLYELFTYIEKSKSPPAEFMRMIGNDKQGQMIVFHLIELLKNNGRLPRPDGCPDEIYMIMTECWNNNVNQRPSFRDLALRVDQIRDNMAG

Chain of TBK1 (Q9UHD2 whole entry): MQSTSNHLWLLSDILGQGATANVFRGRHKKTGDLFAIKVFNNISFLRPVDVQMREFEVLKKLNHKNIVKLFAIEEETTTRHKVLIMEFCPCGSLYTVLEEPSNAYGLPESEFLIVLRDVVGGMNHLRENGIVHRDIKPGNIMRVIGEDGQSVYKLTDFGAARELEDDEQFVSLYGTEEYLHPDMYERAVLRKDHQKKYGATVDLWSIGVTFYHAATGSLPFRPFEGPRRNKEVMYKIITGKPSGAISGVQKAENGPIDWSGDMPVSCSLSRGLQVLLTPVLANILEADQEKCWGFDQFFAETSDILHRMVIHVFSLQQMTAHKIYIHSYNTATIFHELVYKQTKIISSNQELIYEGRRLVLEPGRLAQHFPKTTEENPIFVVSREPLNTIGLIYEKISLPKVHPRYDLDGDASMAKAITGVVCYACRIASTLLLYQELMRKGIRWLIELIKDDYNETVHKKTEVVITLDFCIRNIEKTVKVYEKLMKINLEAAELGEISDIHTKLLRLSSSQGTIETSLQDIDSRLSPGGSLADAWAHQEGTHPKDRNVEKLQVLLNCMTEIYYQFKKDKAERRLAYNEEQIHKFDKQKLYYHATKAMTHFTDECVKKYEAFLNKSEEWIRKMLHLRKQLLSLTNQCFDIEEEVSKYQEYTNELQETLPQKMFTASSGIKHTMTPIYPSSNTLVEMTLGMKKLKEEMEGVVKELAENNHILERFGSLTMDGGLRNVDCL

`C[C@H]1CN(C2COC2)CCN1c1ccc(Nc2ncnc(-c3ccc(O[C@H]4CCN(C(=O)c5nnc[nH]5)CC4(F)F)c(C#N)c3)n2)cc1` [Example 260, 2-(((S)-3,3-difluoro-1-(4H-1,2,4-triazole-3-carbonyl)piperidin-4-yl)oxy)-5-(4-((4-((S)-2-methyl-4-(oxetan-3-yl)piperazin-1-yl)phenyl)amino)-1,3,5-triazin-2-yl)benzonitrile]: the IC50 is 0.002 µM at TBK1 and 0.042 µM at hJAK2.

In the case of `Cc1nnc(C(=O)N2CC[C@H](Oc3ccc(-c4ncnc(Nc5ccc(C6CCN(C)CC6)c(C)c5)n4)cc3C#N)[C@H](F)C2)[nH]1` [Example 490, 2-(((3R,4S)-3-fluoro-1-(5-methyl-4H-1,2,4-triazole-3-carbonyl)piperidin-4-yl)oxy)-5-(4-((3-methyl-4-(1-methylpiperidin-4-yl)phenyl)amino)-1,3,5-triazin-2-yl)benzonitrile], the values for the IC50 on TBK1 and on hJAK2 were 0.003 µM and 0.078 µM, respectively.

As for `N#Cc1cc(-c2ncnc(Nc3ccc(N4CCO[C@@H](CO)C4)cc3)n2)ccc1O[C@H]1CCN(C(=O)CO)C[C@H]1F` [Example 229, 2-(((3R,4S)-3-fluoro-1-(2-hydroxyacetyl)piperidin-4-yl)oxy)-5-(4-((4-((R)-2-(hydroxymethyl)morpholino)phenyl)amino)-1,3,5-triazin-2-yl)benzonitrile], the IC50 on TBK1 worked out at 0.001 µM; at hJAK2, 0.189 µM.

For `N#Cc1cc(-c2ncnc(Nc3ccc(N4CCN(C5COC5)CC4)cc3)n2)ccc1O[C@@H]1CCN(C(=O)CO)C1` [Example 30, (R)-2-((1-(2-hydroxyacetyl)pyrrolidin-3-yl)oxy)-5-(4-((4-(4-(oxetan-3-yl)piperazin-1-yl)phenyl)amino)-1,3,5-triazin-2-yl)benzonitrile], the figures for the IC50 against TBK1 and at hJAK2 were 0.003 µM and 0.387 µM, respectively.

As to `Cc1cc(Nc2ncnc(-c3ccc(O[C@H]4CCN(C=O)CC4(F)F)c(C#N)c3)n2)ccc1C1CCNCC1` [Example 303, (S)-2-((3,3-difluoro-1-formylpiperidin-4-yl)oxy)-5-(4-((3-methyl-4-(piperidin-4-yl)phenyl)amino)-1,3,5-triazin-2-yl)benzonitrile], the IC50 against TBK1 is 0.001 µM; on hJAK2, 0.29 µM.

Regarding `N#CCC(=O)N1CC[C@H](Oc2ccc(-c3ncnc(Nc4ccc(N5CCN(C6COC6)CC5)c(F)c4)n3)cc2C#N)[C@H](F)C1` [Example 404, 2-(((3R,4S)-1-(2-cyanoacetyl)-3-fluoropiperidin-4-yl)oxy)-5-(4-((3-fluoro-4-(4-(oxetan-3-yl)piperazin-1-yl)phenyl)amino)-1,3,5-triazin-2-yl)benzonitrile], the results for the IC50 against TBK1 and on hJAK2 were 0.003 µM and 0.457 µM, respectively.

Take `C[C@H](O)C(=O)N1CC[C@@H](Oc2ccc(-c3ncnc(Nc4ccc(N5CCN(C6COC6)[C@H](C)C5)cc4)n3)cc2C#N)C(F)(F)C1` [Example 245, 2-(((R)-3,3-difluoro-1-((S)-2-hydroxypropanoyl)piperidin-4-yl)oxy)-5-(4-((4-((R)-3-methyl-4-(oxetan-3-yl)piperazin-1-yl)phenyl)amino)-1,3,5-triazin-2-yl)benzonitrile]: the IC50 was 0.017 µM against TBK1 and 0.228 µM on hJAK2.

Regarding `N#Cc1cc(-c2ncnc(Nc3ccc(N4CCN(C5COC5)CC4)cc3)n2)ccc1OCCCN1CCCC1=O` [Example 600, 5-(4-((4-(4-(oxetan-3-yl)piperazin-1-yl)phenyl)amino)-1,3,5-triazin-2-yl)-2-(3-(2-oxopyrrolidin-1-yl)propoxy)benzonitrile], the values for the IC50 on TBK1 and at hJAK2 were 0.517 µM and ≥ 1 µM, respectively.

`CS(=O)(=O)c1ccc(Nc2ncnc(-c3ccc(OC4CCOCC4)c(C#N)c3)n2)cc1` [Example 50, 5-(4-((4-(methylsulfonyl)phenyl)amino)-1,3,5-triazin-2-yl)-2-((tetrahydro-2H-pyran-4-yl)oxy)benzonitrile]: the IC50 at TBK1 was 0.005 µM; at hJAK2, > 1 µM.

As to `N#Cc1cc(-c2ncnc(Nc3ccc(N4CCN(C5COC5)CC4)cc3)n2)ccc1O[C@H]1CCN(C(=O)c2nnc[nH]2)CC1(F)F` [Example 166, (S)-2-((3,3-difluoro-1-(4H-1,2,4-triazole-3-carbonyl)piperidin-4-yl)oxy)-5-(4-((4-(4-(oxetan-3-yl)piperazin-1-yl)phenyl)amino)-1,3,5-triazin-2-yl)benzonitrile], the IC50 on TBK1 worked out at 0.002 µM; at hJAK2, 0.053 µM.

As for `CC(=O)N1CC[C@H](Oc2ccc(-c3ncnc(Nc4ccc(C5CCNCC5)cc4)n3)cc2C#N)C(F)(F)C1` [Example 301, (S)-2-((1-acetyl-3,3-difluoropiperidin-4-yl)oxy)-5-(4-((4-(piperidin-4-yl)phenyl)amino)-1,3,5-triazin-2-yl)benzonitrile], the half-maximal inhibitory concentration (IC50) at TBK1 stood at 0.003 µM; on hJAK2 it was 0.308 µM.

In the case of `CN1CCN(C(=O)N(C)CCOc2ccc(-c3ncnc(Nc4ccc(N5CCN(C6COC6)CC5)cc4)n3)cc2C#N)CC1` [Example 603, N-(2-(2-cyano-4-(4-((4-(4-(oxetan-3-yl)piperazin-1-yl)phenyl)amino)-1,3,5-triazin-2-yl)phenoxy)ethyl)-N,4-dimethylpiperazine-1-carboxamide], the IC50 was 0.466 µM at TBK1 and ≥ 1 µM at hJAK2.

Turning to `C[C@H](O)C(=O)N1CC[C@H](Oc2ccc(-c3ncnc(Nc4ccc(N5CCN(C)CC5)cc4)n3)cc2C#N)[C@H](F)C1` [Example 498, 2-(((3R,4S)-3-fluoro-1-((S)-2-hydroxypropanoyl)piperidin-4-yl)oxy)-5-(4-((4-(4-methylpiperazin-1-yl)phenyl)amino)-1,3,5-triazin-2-yl)benzonitrile], the IC50 against TBK1 was 0.002 µM; on hJAK2, 0.389 µM.

For `C[C@H](O)C(=O)N1CC[C@H](Oc2ccc(-c3ncnc(Nc4ccc(N5C6COCC5C6)cc4)n3)cc2C#N)[C@H](F)C1` [Example 366, 5-(4-((4-(3-oxa-6-azabicyclo[3.1.1]heptan-6-yl)phenyl)amino)-1,3,5-triazin-2-yl)-2-(((3R,4S)-3-fluoro-1-((S)-2-hydroxypropanoyl)piperidin-4-yl)oxy)benzonitrile], the IC50 worked out at 0.003 µM at TBK1 (TBK1 IC50) and 0.531 µM at hJAK2.

As to `C[C@H]1OC(=O)N[C@@H]1C(=O)N1CC[C@H](Oc2ccc(-c3ncnc(Nc4ccc(N5CCN(C6COC6)CC5)cc4)n3)cc2C#N)[C@H](F)C1` [Example 523, 2-(((3R,4S)-3-fluoro-1-((4S,5R)-5-methyl-2-oxooxazolidine-4-carbonyl)piperidin-4-yl)oxy)-5-(4-((4-(4-(oxetan-3-yl)piperazin-1-yl)phenyl)amino)-1,3,5-triazin-2-yl)benzonitrile], the IC50 is 0.01 µM against TBK1 and 0.811 µM on hJAK2.

Consider `N#CCC(=O)N1CCC(Oc2ccc(-c3ncnc(Nc4ccc(N5CCN(C6COC6)CC5)cc4)n3)cc2C#N)CC1` [Example 44, 2-((1-(2-cyanoacetyl)piperidin-4-yl)oxy)-5-(4-((4-(4-(oxetan-3-yl)piperazin-1-yl)phenyl)amino)-1,3,5-triazin-2-yl)benzonitrile], for which the values for the IC50 at TBK1 and at hJAK2 were 0.009 µM and 0.444 µM, respectively.

`C[C@H]1CN(c2ccc(Nc3ncnc(-c4ccc(O[C@H]5CCN(C(=O)CO)CC5(F)F)c(C#N)c4)n3)cc2)CCN1C1COC1` [Example 261, 2-(((S)-3,3-difluoro-1-(2-hydroxyacetyl)piperidin-4-yl)oxy)-5-(4-((4-((S)-3-methyl-4-(oxetan-3-yl)piperazin-1-yl)phenyl)amino)-1,3,5-triazin-2-yl)benzonitrile]: the figures for the IC50 against TBK1 and on hJAK2 were 0.001 µM and 0.046 µM, respectively.

Take `C[C@H]1CN(C)CCN1c1ccc(Nc2ncnc(-c3ccc(O[C@H]4CCN(C(=O)[C@@H](O)CO)C[C@H]4F)c(C#N)c3)n2)cc1` [Example 515, 2-(((3R,4S)-1-((S)-2,3-dihydroxypropanoyl)-3-fluoropiperidin-4-yl)oxy)-5-(4-((4-((S)-2,4-dimethylpiperazin-1-yl)phenyl)amino)-1,3,5-triazin-2-yl)benzonitrile]: the figures for the IC50 against TBK1 and at hJAK2 were 0.002 µM and 0.355 µM, respectively.

With `Cc1cc(Nc2ncnc(-c3ccc(O[C@H]4CCN(C=O)CC4(F)F)c(C#N)c3)n2)ccc1C1CCN(C)CC1` [Example 304, (S)-2-((3,3-difluoro-1-formylpiperidin-4-yl)oxy)-5-(4-((3-methyl-4-(1-methylpiperidin-4-yl)phenyl)amino)-1,3,5-triazin-2-yl)benzonitrile], the IC50 at TBK1 was 0.002 µM; on hJAK2, ≥ 1 µM.

Regarding `CC(=O)N1CC[C@H](Oc2ccc(-c3ncnc(Nc4ccc(C5CCN(C)CC5)cc4)n3)cc2C#N)C(F)(F)C1` [Example 302, (S)-2-((1-acetyl-3,3-difluoropiperidin-4-yl)oxy)-5-(4-((4-(1-methylpiperidin-4-yl)phenyl)amino)-1,3,5-triazin-2-yl)benzonitrile], the IC50 at TBK1 was 0.002 µM; on hJAK2 it was 0.174 µM.

Consider `N#Cc1cc(-c2ncnc(Nc3ccc(C(N)=O)cc3)n2)ccc1O[C@@H]1CCN(C(=O)CO)C1` [Example 85, (R)-4-((4-(3-cyano-4-((1-(2-hydroxyacetyl)pyrrolidin-3-yl)oxy)phenyl)-1,3,5-triazin-2-yl)amino)benzamide], for which the IC50 against TBK1 is 0.013 µM; on hJAK2, 0.678 µM.

On to `N#Cc1cc(-c2ncnc(Nc3ccc(C4CCN(C5COC5)CC4)cc3)n2)ccc1O[C@H]1CCN(C(=O)c2ccn[nH]2)C[C@H]1F` [Example 318, 2-(((3R,4S)-3-fluoro-1-(1H-pyrazole-5-carbonyl)piperidin-4-yl)oxy)-5-(4-((4-(1-(oxetan-3-yl)piperidin-4-yl)phenyl)amino)-1,3,5-triazin-2-yl)benzonitrile], for which the IC50 is 0.002 µM against TBK1 and ≥ 1 µM on hJAK2.

Take `COc1cc(Nc2ncnc(-c3ccc(O[C@H]4CCN(C(=O)CO)C[C@H]4F)c(C#N)c3)n2)ccc1N1CCC(N2CCOCC2)CC1` [Example 325, 2-(((3R,4S)-3-fluoro-1-(2-hydroxyacetyl)piperidin-4-yl)oxy)-5-(4-((3-methoxy-4-(4-morpholinopiperidin-1-yl)phenyl)amino)-1,3,5-triazin-2-yl)benzonitrile]: the IC50 against TBK1 is 0.002 µM; at hJAK2 it was 0.028 µM.
